From patent US20090274577A1, “STE[…] TREATMENT WITH REDUCTANT AND OXIDANT” (priority 2008, published 2009)

Test system: Bacillus atrophaeus spores
Test: Filtering test: spores incubated in test solution, filtered, filter half treated with ozone, colonies counted
Format: cell-based
Source text: Bacterial spores: Stainless steel discs with Bacillus atrophaeus spores (log 6, cat #1-6100ST, Raven Biological Laboratories).
An ozone generator provided ˜350 ppm O3, and a flow rate of ˜25 l/min, using setting No. 1.
Commercially available sterile single filters (pore size 0.45 μm) and an analytical test filter funnel from Nalgene was used (F-2161, Sigma-Aldrich). For suction, a Rietschle Thomas DTF 6 vacuum pump was used, with a flow rate of ˜6 m3/h, providing a vacuum of ˜150 mbar abs.
Filtering test: In filtering test experiments the spore solutions were prepared in a volume of 1 ml and processed. Thereto, after an incubation period of 5 min in the appropriate buffer at 40° C. using a rotary shaker, an aliquot of 250 μl of the suspension was transferred onto a sterile single use filters. The filter was washed two times with 10 ml of sterile water. The filter was retrieved under sterile conditions, and the filter was cut into halves using a sterile scissor. Only one half of the filter was treated with ozone, while the other half was kept as control, i.e. without ozone treatment. Finally, both halves were placed onto a TSA plate and incubated at 30° C. Initially Nutrient Agar plates were used, but later on a switch was made to TSA plates, in order to utilize the more pronounced reddish colour of Bacillus atrophaeus colonies which was facilitating analysis and documentation. […]

OC(CS)C(O)CS (racemic) [DTT, DL-dithiotreitol]
reduction of viability of Bacillus atrophaeus (liquid media comprising reductant, then sterile air with ~350 ppm ozone for 5 or 10 min): 3-5 logs | sterilizing/disinfecting/killing effect (in words) (test solution followed by ~350 ppm ozone, 5 or 10 min): improved
